Measured values: ChEMBL document CHEMBL1201862, “PubChem BioAssay data set” (2004)
Calls of active or inactive are those of the source.

How the values were obtained:
Streptococcus = assay: Luminescence Microorganism-Based Dose Response Follow up to Identify Compounds Cytotoxic to Streptococcus. [Related pubchem assays: 1677 (Project Summary), 1915, 1914, 1902 (Retest at Dose), 1900 (Counter Screen), 1662 (Primary HTS)]; type: functional, organism-based
[1] = Counterscreen for IDE inhibitors: Luminescence-based cell-based high throughput dose response assay to identify compounds that are cytotoxic to HEK cells. [Related pubchem assays: 434962 (Primary screen (IDE inhibitors in singlicate)), 449730 (Counterscreen (Cytotoxicity in triplicate)), 435028 (Confirmation (IDE inhibitors in triplicate)) …; type: functional; conditions: HEK293
[2] = target: T1, High affinity choline transporter 1 (Homo sapiens, UniProt Q9GZV3); assay: human choline transporter blockers, potency – cell-based, 10-point CRC, membrane potential dye, dose response (AID 588401); type: functional;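 further: membrane potential dye fluorescence of choline-evoked depolarization via CHT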
T1 sequence (Q9GZV3 whole entry): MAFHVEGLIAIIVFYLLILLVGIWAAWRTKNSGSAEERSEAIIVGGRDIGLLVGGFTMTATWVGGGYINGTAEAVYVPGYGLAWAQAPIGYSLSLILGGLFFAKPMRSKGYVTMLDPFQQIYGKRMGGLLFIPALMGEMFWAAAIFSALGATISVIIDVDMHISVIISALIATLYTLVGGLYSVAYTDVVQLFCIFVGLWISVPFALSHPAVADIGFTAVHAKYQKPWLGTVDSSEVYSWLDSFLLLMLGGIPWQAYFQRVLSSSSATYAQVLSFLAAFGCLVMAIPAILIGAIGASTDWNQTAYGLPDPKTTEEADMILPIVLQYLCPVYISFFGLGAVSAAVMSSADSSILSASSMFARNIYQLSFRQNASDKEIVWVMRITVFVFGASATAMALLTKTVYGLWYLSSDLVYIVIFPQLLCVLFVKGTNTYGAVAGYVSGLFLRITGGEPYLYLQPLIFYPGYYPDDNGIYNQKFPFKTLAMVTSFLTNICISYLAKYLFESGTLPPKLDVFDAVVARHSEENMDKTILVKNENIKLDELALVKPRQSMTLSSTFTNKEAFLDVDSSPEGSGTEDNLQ

Insulin-degrading enzyme = target: T2, Insulin-degrading enzyme (Homo sapiens, UniProt P14735); assay: Dose Response: Fluorescence polarization-based cell-based high throughput dose response assay for inhibitors of insulin-degrading enzyme (IDE). [Related pubchem assays: 434962 (Primary screen (IDE inhibitors in singlicate)), 449730 (Counterscreen (Cytotoxicity in triplicate)), 435028 (Confirmation (IDE inhibitors in triplicate)), 434984 (Summary …; type: functional
T2 sequence (P14735 whole entry): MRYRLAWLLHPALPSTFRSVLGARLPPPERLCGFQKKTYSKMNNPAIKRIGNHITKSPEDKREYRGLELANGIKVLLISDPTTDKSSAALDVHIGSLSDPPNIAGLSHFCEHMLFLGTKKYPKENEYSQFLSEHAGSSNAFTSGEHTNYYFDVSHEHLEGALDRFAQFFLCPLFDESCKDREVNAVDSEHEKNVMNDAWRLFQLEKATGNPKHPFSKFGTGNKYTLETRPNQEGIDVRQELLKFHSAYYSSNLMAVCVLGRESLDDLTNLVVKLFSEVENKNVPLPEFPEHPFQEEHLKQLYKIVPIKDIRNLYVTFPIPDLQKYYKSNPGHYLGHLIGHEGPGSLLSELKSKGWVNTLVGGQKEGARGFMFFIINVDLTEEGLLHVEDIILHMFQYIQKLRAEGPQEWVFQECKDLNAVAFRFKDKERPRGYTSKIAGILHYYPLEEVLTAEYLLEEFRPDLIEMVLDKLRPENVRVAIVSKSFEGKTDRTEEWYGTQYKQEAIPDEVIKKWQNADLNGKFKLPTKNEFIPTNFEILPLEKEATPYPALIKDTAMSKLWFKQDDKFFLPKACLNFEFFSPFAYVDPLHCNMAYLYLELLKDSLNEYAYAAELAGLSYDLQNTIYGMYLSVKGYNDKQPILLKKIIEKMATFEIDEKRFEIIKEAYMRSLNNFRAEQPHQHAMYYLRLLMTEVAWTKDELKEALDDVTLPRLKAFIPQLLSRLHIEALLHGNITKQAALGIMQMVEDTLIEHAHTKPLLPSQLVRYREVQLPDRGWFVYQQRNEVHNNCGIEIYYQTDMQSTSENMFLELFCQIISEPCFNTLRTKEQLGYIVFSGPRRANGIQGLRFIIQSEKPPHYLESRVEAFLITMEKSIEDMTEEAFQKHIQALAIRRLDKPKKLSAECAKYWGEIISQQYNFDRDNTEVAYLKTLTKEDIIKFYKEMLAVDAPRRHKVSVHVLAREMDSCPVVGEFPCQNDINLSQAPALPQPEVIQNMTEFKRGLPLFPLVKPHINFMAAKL

[3] = target: T1, High affinity choline transporter 1; assay: human choline transporter blockers, potency – cell-based, 5-point CRC, membrane potential dye, dose response (AID 504840); type: functional
[4] = toxicity toward HepG2 liver cells – cell-based, plate reader, cherry-pick, antagonist series, cytotoxicity control, dose response (AID 743416); type: functional
[5] = alpha-synuclein stem-loop luciferase translation blockers – H4 neuroglioma cells, luminescence, confirmation (AID 1988); type: functional, cell-based
[6] = viability loss in HEK293 cells – cell-based, plate reader, cherry-picked samples, cytotoxicity control, dose response (AID 743446); type: functional
[7] = Luminescence Cell-Based Dose Confirmation HTS to Identify Inhibitors of Platelet Dense Granule Release. [Related pubchem assays: 1663 (Primary HTS), 1678 (Summary of Project)]; type: functional
[8] = target: Luciferin 4-monooxygenase (Photinus pyralis, UniProt P08659); assay: inhibition of purified Photinus pyralis luciferase – biochemical, luminescence, dose response (AID 1891)
[9] = A549 cell cytotoxicity, dose response, cytotoxicity control, plate reader, cherry-pick, antagonist series (AID 743412); type: functional, cell-based
[10] = luciferase reporter signal suppression in cells – H4 neuroglioma cells, luminescence, dose response (AID 1990); type: functional, cell-based
[11] = Luminescence-based counterscreen assay for KLF5 inhibitors: dose response cell-based high throughput screening assay to identify cytotoxic compounds using the IEC-6 intestinal epithelial cell line. [Related pubchem assays: 1700 (Primary screen.), 1834 (Confirmation screen.), 1858 (Summary AID.), 1905 (Counterscreen.)]; type: functional
[12] = Luminescence Cell-Based Dose Response HTS to Identify Inhibitors of 5'UTR Stem-Loop Driven Prion Protein mRNA Translation in H4 Neuroglioblastoma Cells. [Related pubchem assays: 1827 (Project Summary), 1813 (Primary HTS)]; type: functional
[13] = blockers of bursicon-stimulated LGR2 cAMP reporter – cell-based, HEK293, CRE-luciferase reporter, cherry pick, set 2, dose response (AID 743343); type: functional;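 further: transfected cells were stimulated with diluted bursicon conditioned medium after compound addition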
[14] = blockade of melanocortin 4 receptor signaling – cell-based, plate reader, cherry pick, counter-screen for LGR2 antagonist project, dose response (AID 743444); type: functional;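 further: transfected HEK 293 cells stimulated with alpha-MSH peptide; potency of inhibitors of the alpha-MSH evoked signal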
[15] = viability of uninfected HEp-2 cells – cell-based, HTS, cytotoxicity control for RSV inhibitor project, dose response (AID 2410); type: functional; conditions: human respiratory syncytial virus
[16] = target: T3, Neuropeptides B/W receptor type 1 (Homo sapiens, UniProt P48145); assay: Fluorescence-based dose response cell-based high throughput screening assay to identify antagonists of the G-protein coupled receptor 7 (GPR7). [Related pubchem assays: 1952 (Screening assay (GPR7 antagonists).), 1880 (Summary AID.)]; type: functional
T3 sequence (P48145 whole entry): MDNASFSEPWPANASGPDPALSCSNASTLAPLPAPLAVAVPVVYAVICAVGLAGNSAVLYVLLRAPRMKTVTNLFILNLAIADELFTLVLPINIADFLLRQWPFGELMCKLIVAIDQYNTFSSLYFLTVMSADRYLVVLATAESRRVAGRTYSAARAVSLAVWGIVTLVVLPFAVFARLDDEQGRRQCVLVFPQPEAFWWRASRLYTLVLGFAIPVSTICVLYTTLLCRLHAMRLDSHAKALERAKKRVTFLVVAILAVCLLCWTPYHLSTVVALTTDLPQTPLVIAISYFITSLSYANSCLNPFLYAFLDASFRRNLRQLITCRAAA

[17] = target: Melanin-concentrating hormone receptor 1 (Homo sapiens, UniProt Q99705); assay: Fluorescence-based counterscreen for antagonists of the G-protein coupled receptor 7 (GPR7): cell-based high throughput dose response assay to identify antagonists of the melanin-concentrating hormone receptor 1 (MCHR1).; type: functional
[18] = target: T4, Corticotropin-releasing factor receptor 2/Corticotropin-releasing factor-binding protein (Homo sapiens, UniProt P24387+Q13324); assay: activators of CRF receptor 2 with binding protein – uHTS hits, confirmation (AID 602473); type: functional; conditions: read-out: EC50_Mean
T4 sequence (Q13324 whole entry): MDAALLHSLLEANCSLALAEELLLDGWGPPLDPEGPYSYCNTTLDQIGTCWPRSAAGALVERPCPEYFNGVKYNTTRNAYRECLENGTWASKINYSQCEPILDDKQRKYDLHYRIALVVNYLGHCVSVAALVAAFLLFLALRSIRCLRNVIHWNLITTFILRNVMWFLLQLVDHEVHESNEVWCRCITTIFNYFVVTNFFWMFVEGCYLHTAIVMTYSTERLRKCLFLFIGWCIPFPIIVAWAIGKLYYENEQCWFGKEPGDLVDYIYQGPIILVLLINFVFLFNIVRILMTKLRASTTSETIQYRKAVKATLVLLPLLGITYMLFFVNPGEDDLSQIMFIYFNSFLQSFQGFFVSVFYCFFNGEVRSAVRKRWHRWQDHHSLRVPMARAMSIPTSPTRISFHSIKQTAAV
T4 sequence (P24387 whole entry): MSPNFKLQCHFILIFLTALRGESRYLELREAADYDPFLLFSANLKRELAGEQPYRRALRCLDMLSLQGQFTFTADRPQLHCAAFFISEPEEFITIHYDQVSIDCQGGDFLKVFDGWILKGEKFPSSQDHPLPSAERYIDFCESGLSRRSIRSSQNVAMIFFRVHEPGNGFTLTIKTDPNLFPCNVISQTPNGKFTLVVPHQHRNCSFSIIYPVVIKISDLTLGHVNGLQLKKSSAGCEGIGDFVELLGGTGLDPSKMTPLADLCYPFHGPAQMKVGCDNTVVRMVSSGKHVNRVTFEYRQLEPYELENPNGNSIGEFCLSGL

Luciferin 4-monooxygenase, sequence (P08659 whole entry): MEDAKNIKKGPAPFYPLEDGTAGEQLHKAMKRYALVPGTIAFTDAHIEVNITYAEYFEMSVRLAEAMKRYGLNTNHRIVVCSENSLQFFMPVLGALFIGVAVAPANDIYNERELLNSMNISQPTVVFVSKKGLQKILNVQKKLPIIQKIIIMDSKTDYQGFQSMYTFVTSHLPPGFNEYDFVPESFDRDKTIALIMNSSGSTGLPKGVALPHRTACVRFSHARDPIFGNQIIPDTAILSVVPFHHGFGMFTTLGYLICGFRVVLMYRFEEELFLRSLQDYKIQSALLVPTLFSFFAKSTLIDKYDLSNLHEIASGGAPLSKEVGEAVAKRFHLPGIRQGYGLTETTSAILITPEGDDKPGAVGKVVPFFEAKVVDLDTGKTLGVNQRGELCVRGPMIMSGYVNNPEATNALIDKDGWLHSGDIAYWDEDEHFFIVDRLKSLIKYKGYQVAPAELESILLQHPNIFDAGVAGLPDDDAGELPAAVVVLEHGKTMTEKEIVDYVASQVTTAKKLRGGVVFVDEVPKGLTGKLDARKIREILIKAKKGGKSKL
Melanin-concentrating hormone receptor 1, sequence (Q99705 whole entry): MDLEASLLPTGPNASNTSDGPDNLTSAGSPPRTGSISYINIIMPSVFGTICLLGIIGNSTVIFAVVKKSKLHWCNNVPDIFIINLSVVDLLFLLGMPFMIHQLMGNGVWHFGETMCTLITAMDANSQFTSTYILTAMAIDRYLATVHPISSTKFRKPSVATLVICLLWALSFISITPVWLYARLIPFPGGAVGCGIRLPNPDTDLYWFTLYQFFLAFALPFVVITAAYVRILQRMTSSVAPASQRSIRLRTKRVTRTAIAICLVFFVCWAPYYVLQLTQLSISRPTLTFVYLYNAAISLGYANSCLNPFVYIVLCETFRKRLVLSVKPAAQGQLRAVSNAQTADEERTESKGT

N#Cc1ccc(C(=O)n2c3ccccc3c3ccccc32)cc1
EC50 (Streptococcus): > 500 µM (not active)

CC(C)(C)NC(=O)NC(=O)CN1CCN(c2cccc(Cl)c2)CC1
IC50 [1]: 19.3 µM (not active) | IC50 [2]: 3.16 µM (active) | IC50 (Insulin-degrading enzyme): > 55.9 µM (not active) | IC50 [3]: 8.64 µM (active)

CCc1ccn2cc(-c3ccc4c(c3)OCO4)nc2c1
AC50 [4]: > 52 µM (inactive) | EC50 [5]: 0.158 µM (active) | AC50 [6]: > 52 µM (inactive) | EC50 [7]: 8.85 µM (active) | EC50 [8]: 2.16 µM (active) | AC50 [9]: > 52 µM (inactive) | EC50 [10]: 0.239 µM (active) | IC50 [11]: 21.5 µM (not active) | EC50 [12]: < 0.1 µM (active) | AC50 [13]: 1.22 µM (active) | AC50 [14]: 1.5 µM (active)

COc1ccc(-c2oc(=O)c3cc(OC)c(OC)cc3c2/C=C/c2cccc([N+](=O)[O-])c2)cc1
CC50 [15]: 38 µM (active) | IC50 (cells): 14.8 µM (active)

N=c1c(C(=O)NCCc2ccccc2)cc2c(=O)n3ccccc3nc2n1CCCN1CCOCC1
IC50 [16]: > 43.8 µM (not active) | IC50 [17]: > 43.8 µM (not active)

Cc1cccc(/N=C/c2[nH]c3ccc(Br)c(Cl)c3c2O)c1
IC50 [1]: 13.1 µM (not active) | IC50 (Insulin-degrading enzyme): 38.2 µM (not active) | EC50 [18]: 0.46 µM (active)
